Experiments:
Type in all cases: biochemical
human factor XIIa = target: T1, human factor XIIa (Homo sapiens, UniProt P00748); test: Inhibitory constants for factor XIIa (substrate H-D-HHT-Gly-Arg-pNA, Chromozym XII); details: read-out: Ki F XIIa
T1 construct: purchased Haemochrom Diagnostica GmbH, Essen, Germany
Description: (§1) The inhibitory effect for the individual enzymes was determined in analogy with a method which has already been described (Stürzebecher et al., J. Med. Chem. 40, 3091-3099, 1997).
(§2) After 3 min, the reaction was terminated by adding 25 μl of acetic acid (50%) and the absorption at […] was determined using a Microplate Reader (Labsystems iEMS Reader MF). The Ki values were determined, in accordance with Dixon (Biochem. J. 55, 170-171, 1953), by means of linear regression and using a computer program. The Ki values are the mean of at least three determinations.
(§3) The inhibition of factor XIa and factor XIIa was determined in an analogous manner. When determining the inhibitory constants for human factor XIa (Haemochrom Diagnostica GmbH, Essen, Germany), H-D-Lys(Z)-Pro-Arg-pNA (Chromozym PCa, Roche Diagnostics GmbH, Mannheim, Germany) was used as the substrate.
H-D-HHT-Gly-Arg-pNA (Chromozym XII, Roche Diagnostics GmbH, Mannheim, Germany) was used as the substrate for measuring the inhibitory constants of human factor XIIa (Haemochrom Diagnostica GmbH, Essen, Germany).

human factor XIa = target: T2, human factor XIa (Homo sapiens, UniProt P03951); test: Inhibitory constants for factor XIa (substrate H-D-Lys(Z)-Pro-Arg-pNA, Chromozym PCa); details: read-out: Ki F XIa
T2 construct: purchased Haemochrom Diagnostica GmbH, Essen, Germany
Description: as §1, §2, §3

plasma kallikrein (PK) = plasma kallikrein (PK) (Homo sapiens, UniProt P03952); test: Determining the inhibitory constants: inhibition of PK (substrate Bzl-Pro-Phe-Arg-pNA); details: Tris buffer pH 8.0, 25° C.; mean of at least three determinations
Description: as §1, §2

thrombin = thrombin (UniProt P00735); test: Inhibitory constants for thrombin; details: read-out: Ki Thrombin

T1 sequence (P00748 373-615 limits assumed, other chains not shown): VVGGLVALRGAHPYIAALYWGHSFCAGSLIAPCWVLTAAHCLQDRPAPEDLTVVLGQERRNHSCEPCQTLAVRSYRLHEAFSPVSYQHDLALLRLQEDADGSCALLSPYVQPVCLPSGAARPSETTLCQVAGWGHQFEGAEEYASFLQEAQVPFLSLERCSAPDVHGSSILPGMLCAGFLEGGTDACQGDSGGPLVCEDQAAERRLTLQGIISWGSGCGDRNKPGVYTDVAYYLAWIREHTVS
T2 sequence (P03951 388-625 limits assumed): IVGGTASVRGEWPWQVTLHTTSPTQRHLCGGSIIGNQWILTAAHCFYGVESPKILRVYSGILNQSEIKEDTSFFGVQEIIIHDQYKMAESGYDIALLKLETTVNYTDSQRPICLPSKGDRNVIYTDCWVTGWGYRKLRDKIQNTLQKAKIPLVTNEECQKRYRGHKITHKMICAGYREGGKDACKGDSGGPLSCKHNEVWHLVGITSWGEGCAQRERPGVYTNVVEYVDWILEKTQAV
T2 sequence (P03951 19-387 partner limits assumed): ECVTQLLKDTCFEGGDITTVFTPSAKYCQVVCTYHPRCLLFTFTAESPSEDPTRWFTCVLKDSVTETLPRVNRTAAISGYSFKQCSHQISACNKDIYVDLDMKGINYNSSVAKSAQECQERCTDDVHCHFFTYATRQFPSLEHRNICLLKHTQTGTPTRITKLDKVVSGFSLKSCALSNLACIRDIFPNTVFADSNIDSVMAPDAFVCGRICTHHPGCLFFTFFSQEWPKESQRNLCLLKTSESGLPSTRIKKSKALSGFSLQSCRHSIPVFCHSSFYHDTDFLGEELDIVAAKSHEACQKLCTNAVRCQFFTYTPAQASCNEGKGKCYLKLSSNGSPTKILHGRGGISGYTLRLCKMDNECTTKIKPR
Sequence of plasma kallikrein (PK) (P03952 391-638 limits assumed, species assumed): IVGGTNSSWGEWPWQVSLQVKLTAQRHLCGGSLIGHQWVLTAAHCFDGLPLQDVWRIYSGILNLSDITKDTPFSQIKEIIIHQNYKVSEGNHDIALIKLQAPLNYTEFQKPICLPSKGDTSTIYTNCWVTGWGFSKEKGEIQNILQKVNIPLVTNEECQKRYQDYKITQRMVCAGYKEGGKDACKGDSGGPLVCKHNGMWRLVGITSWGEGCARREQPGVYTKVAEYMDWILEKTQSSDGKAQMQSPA
Sequence of plasma kallikrein (PK) (P03952 20-390 partner limits assumed, species assumed): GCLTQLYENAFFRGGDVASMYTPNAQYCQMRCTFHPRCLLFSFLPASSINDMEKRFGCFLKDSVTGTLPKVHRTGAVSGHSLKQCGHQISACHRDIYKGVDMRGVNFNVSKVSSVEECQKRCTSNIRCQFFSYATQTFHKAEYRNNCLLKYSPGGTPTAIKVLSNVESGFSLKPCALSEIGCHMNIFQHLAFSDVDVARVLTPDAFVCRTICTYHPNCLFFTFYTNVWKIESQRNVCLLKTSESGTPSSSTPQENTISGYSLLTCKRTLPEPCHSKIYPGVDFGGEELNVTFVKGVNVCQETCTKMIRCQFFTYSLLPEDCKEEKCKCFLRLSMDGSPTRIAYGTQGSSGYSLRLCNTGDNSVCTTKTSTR

Row | SMILES | Ki (human factor XIIa) | Ki (human factor XIa) | Ki (plasma kallikrein (PK)) | Ki (thrombin)
1 | COC(=O)c1ccc(CS(=O)(=O)N[C@H](CO)C(=O)N[C@@H](CO)C(=O)NCc2ccc(C(=N)N)cc2)cc1 [Inhibitor 24] | 19 µM | 0.87 µM | 0.16 µM | 4200 nM
2 | N=C(N)c1ccc(CNC(=O)CNC(=O)[C@@H](CO)NS(=O)(=O)Cc2ccc(C(=O)O)cc2)cc1 [Inhibitor 20] | > 1000 µM | 0.6 µM | 0.7 µM | 170000 nM
3 | N=C(N)c1ccc(CNC(=O)[C@@H]2CCCN2C(=O)[C@@H](CO)NS(=O)(=O)Cc2ccc(C(=O)O)cc2)cc1 [Inhibitor 61] | 29 µM | 0.014 µM | 0.0091 µM | 240 nM
4 | CC(C)(C)OC[C@@H](NS(=O)(=O)Cc1ccccc1)C(=O)N[C@@H](CC(=O)O)C(=O)NCc1ccc(C(=N)N)cc1 [Inhibitor 29] | > 1000 µM | 0.39 µM | 0.91 µM | 6000 nM
5 | C[C@@H](OCc1ccccc1)[C@H](NC(=O)[C@@H](CO)NS(=O)(=O)Cc1ccccc1)C(=O)NCc1ccc(C(=N)N)cc1 [Inhibitor 14] | 23 µM | 0.33 µM | 0.091 µM | 300 nM
6 | C[C@H](NC(=O)[C@@H](CO)NS(=O)(=O)Cc1ccccc1)C(=O)NCc1ccc(C(=N)N)cc1 [Inhibitor 2] | 9.2 µM | 0.11 µM | 0.07 µM | 110 nM
7 | N=C(N)c1ccc(CNC(=O)[C@H](CCCCNC(=O)COCC(=O)NCCOCCOCCOCCOCCOCCOCCOCCN)NC(=O)[C@@H](CO)NS(=O)(=O)Cc2ccccc2)cc1 [Inhibitor 88] | 21 µM | 0.4 µM | 0.22 µM | 1200 nM
8 | N=C(N)c1ccc(CNC(=O)[C@H](CCCCNC(=O)COCC(=O)NCCOCCOCCOCCOCCOCCOCCOCCN)NC(=O)[C@@H](CC2CCCCC2)NS(=O)(=O)Cc2ccccc2)cc1 [Inhibitor 58] | 2 µM | 0.23 µM | 0.059 µM | 8 nM
9 | CC(C)(C)OC[C@@H](NS(=O)(=O)Cc1ccccc1)C(=O)N[C@@H](CCCCN)C(=O)NCc1ccc(C(=N)N)cc1 [Inhibitor 35] | 4.4 µM | 0.51 µM | 0.0036 µM | 55 nM
10 | N=C(N)NCCC[C@H](NC(=O)[C@@H](CO)NS(=O)(=O)Cc1ccccc1)C(=O)NCc1ccc(C(=N)N)cc1 [Inhibitor 12] | 16 µM | 0.77 µM | 0.079 µM | 4700 nM
11 | CC(C)(C)OC[C@@H](NS(=O)(=O)Cc1ccc(C(=O)O)cc1)C(=O)N[C@@H](CO)C(=O)NCc1ccc(C(=N)N)cc1 [Inhibitor 65] | 17 µM | 0.03 µM | 0.015 µM | 2000 nM
12 | CC(C)(C)OC[C@@H](NS(=O)(=O)Cc1ccccc1)C(=O)N[C@@H](CCC(N)=O)C(=O)NCc1ccc(C(=N)N)cc1 [Inhibitor 31] | 6.3 µM | 0.067 µM | 0.0092 µM | 21 nM
13 | C[C@H](NC(=O)[C@@H](COC(C)(C)C)NS(=O)(=O)Cc1ccccc1)C(=O)NCc1ccc(C(=N)N)cc1 [Inhibitor 27] | 2 µM | 0.03 µM | 0.061 µM | 2.1 nM
14 | N=C(N)c1ccc(CNC(=O)C2CCCN2C(=O)C(CO)NS(=O)(=O)Cc2ccccc2)cc1 (stereo not shown) [Inhibitor 3] | 5.1 µM | 0.1 µM | 0.054 µM | 12 nM
15 | N=C(N)c1ccc(CNC(=O)[C@H](CCCCNC(=O)OCc2ccccc2)NC(=O)[C@@H](CO)NS(=O)(=O)Cc2ccccc2)cc1 [Inhibitor 11] | 15 µM | 0.3 µM | 0.0035 µM | 180 nM
16 | N=C(N)c1ccc(CNC(=O)CNC(=O)C(CO)NS(=O)(=O)Cc2ccccc2)cc1 (stereo not shown) [Inhibitor 1] | 16 µM | 2.2 µM | 1.7 µM | 13000 nM
17 | CC(C)(C)OC[C@@H](NS(=O)(=O)Cc1ccccc1)C(=O)N[C@@H](CO)C(=O)NCc1ccc(C(=N)N)cc1 [Inhibitor 40] | 6 µM | 0.2 µM | 0.052 µM | 47 nM
18 | CC(C)(C)OC[C@@H](NS(=O)(=O)Cc1ccccc1)C(=O)N[C@@H](CCC(=O)O)C(=O)NCc1ccc(C(=N)N)cc1 [Inhibitor 30] | 19 µM | 0.079 µM | 0.36 µM | 2600 nM
19 | N=C(N)c1ccc(CNC(=O)[C@H](CN)NC(=O)[C@@H](CO)NS(=O)(=O)Cc2ccccc2)cc1 [Inhibitor 8] | 15 µM | 0.39 µM | 0.05 µM | 650 nM
20 | C[C@H](NC(=O)[C@@H](COC(C)(C)C)NS(=O)(=O)Cc1ccc(C(=O)O)cc1)C(=O)NCc1ccc(C(=N)N)cc1 [Inhibitor 48] | 9.5 µM | 0.0069 µM | 0.0062 µM | 44 nM

The next compounds have a lower Ki (human factor XIIa) than those just listed; values first:

Row | Ki (human factor XIIa) | Ki (human factor XIa) | Ki (plasma kallikrein (PK)) | Ki (thrombin) | SMILES
21 | 1.3 µM | 0.083 µM | 0.0045 µM | 48 nM | CC(C)(C)OC[C@@H](NS(=O)(=O)Cc1ccccc1)C(=O)N[C@@H](CCc1ccccc1)C(=O)NCc1ccc(C(=N)N)cc1 [Inhibitor 45]
22 | 0.39 µM | 0.093 µM | 0.051 µM | 710 nM | N=C(N)c1ccc(CNC(=O)CNC(=O)[C@@H](CCc2ccccc2)NS(=O)(=O)Cc2ccc([N+](=O)[O-])cc2)cc1 [Inhibitor 74]
23 | 1.4 µM | 0.33 µM | 0.1 µM | 23 nM | N=C(N)c1ccc(CNC(=O)CNC(=O)[C@@H](CC2CCCCC2)NS(=O)(=O)Cc2ccccc2)cc1 [Inhibitor 82]
24 | 0.63 µM | 3 µM | 0.019 µM | 550 nM | N=C(N)c1ccc(CNC(=O)[C@H](CO)NC(=O)[C@@H](CCc2ccccc2)NS(=O)(=O)Cc2ccccc2)cc1 [Inhibitor 67]
25 | 0.83 µM | 0.15 µM | 0.0023 µM | 10 nM | N=C(N)c1ccc(CNC(=O)[C@H](CCCCN)NC(=O)[C@@H](CC2CCCCC2)NS(=O)(=O)Cc2ccccc2)cc1 [Inhibitor 53]
26 | 0.49 µM | 0.036 µM | 0.0065 µM | 2 nM | CC(C)(C)OC[C@@H](NS(=O)(=O)Cc1ccccc1)C(=O)N1CCC[C@H]1C(=O)NCc1ccc(C(=N)N)cc1 [Inhibitor 28]
27 | 0.31 µM | 0.22 µM | 0.075 µM | 59 nM | N=C(N)NCc1cccc(C[C@@H](NS(=O)(=O)Cc2ccccc2)C(=O)NCC(=O)NCc2ccc(C(=N)N)cc2)c1 [Inhibitor 79]
28 | 0.094 µM | 0.031 µM | 0.0055 µM | 170 nM | N=C(N)c1ccc(CNC(=O)[C@H](CCC(=O)OCc2ccccc2)NC(=O)[C@@H](CCc2ccncc2)NS(=O)(=O)Cc2ccccc2)cc1 [Inhibitor 60]
29 | 0.34 µM | 0.49 µM | 0.068 µM | 2100 nM | N=C(N)NCC[C@@H](NS(=O)(=O)Cc1ccccc1)C(=O)NCC(=O)NCc1ccc(C(=N)N)cc1 [Inhibitor 80]
30 | 0.38 µM | 0.7 µM | 0.14 µM | 530 nM | COC(=O)c1ccc(CS(=O)(=O)N[C@H](Cc2cccc(C(=N)N)c2)C(=O)NCC(=O)NCc2ccc(C(=N)N)cc2)cc1 [Inhibitor 84]
31 | 1.6 µM | 0.0091 µM | 0.0094 µM | 0.064 nM | CC(C)(C)OC[C@@H](NS(=O)(=O)Cc1ccc(C#N)cc1)C(=O)N1CCC[C@H]1C(=O)NCc1ccc(C(=N)N)cc1 [Inhibitor 51]
